Source: ChEMBL document CHEMBL5579806, “Re-exploration of tetrahydro-β-carboline scaffold: Discovery of selective histone deacetylase 6 inhibitors with neurite outgrowth-promoting and neuroprotective activities” (Bioorg Med Chem Lett, 2024)
The source made the active and inactive calls. No cut-off for these calls is given here.

Assays:
PC-12 [1] = assay: Neuroprotective activity against H2O2-induced oxidative stress in rat PC-12 cells assessed as cell viability at 5 uM incubated for 24 hrs (reference value: 62.5 %); assay type: functional; settings: read-out: Activity
PC-12 [2] = assay: Induction of neurite outgrowth in NGF-induced rat PC-12 cells assessed as increase in percentage of neurite bearing cells at 3 uM relative to control; assay type: functional
PC-12 [3] = assay: Induction of neurite outgrowth in NGF-induced rat PC-12 cells; assay type: functional, cell-based; settings: dose 1-10 µM
Histone deacetylase 1 = Histone deacetylase 1 (Homo sapiens, UniProt Q13547); assay: Inhibition of human HDAC1 using RHKKAc as substrate by fluorescence based assay
Histone deacetylase 2 = Histone deacetylase 2 (Homo sapiens, UniProt Q92769); assay: Inhibition of human HDAC2 using RHKKAc as substrate by fluorescence based assay
[4] = target: Histone deacetylase 3/Nuclear receptor corepressor 2 (HDAC3/NCoR2) (Homo sapiens, UniProt O15379); assay: Inhibition of human HDAC3/NCOR2 using RHKKAc as substrate by fluorescence based assay; assay type: protein-complex assay
Histone deacetylase 8 = target: T1, Histone deacetylase 8 (Homo sapiens, UniProt Q9BY41); assay: Inhibition of human HDAC8 using RHK(Ac)-K(Ac) as substrate by fluorescence based assay
T1 sequence (Q9BY41 whole entry): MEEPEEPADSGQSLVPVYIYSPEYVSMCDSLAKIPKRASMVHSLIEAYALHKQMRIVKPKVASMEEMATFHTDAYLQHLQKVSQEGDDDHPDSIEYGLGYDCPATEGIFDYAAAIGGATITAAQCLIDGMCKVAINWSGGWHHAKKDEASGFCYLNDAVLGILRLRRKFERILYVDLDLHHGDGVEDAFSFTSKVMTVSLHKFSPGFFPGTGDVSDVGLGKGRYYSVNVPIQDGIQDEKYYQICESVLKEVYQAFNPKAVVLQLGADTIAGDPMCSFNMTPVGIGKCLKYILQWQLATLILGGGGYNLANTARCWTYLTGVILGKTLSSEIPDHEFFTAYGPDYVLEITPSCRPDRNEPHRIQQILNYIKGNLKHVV

Histone deacetylase 5 = Histone deacetylase 5 (Homo sapiens, UniProt Q9UQL6); assay: Inhibition of human HDAC5 using Boc-Lys(trifluoroacetyl)-AMC as substrate by fluorescence based assay
PC-12 [5] = assay: Inhibition of HDAC6 in rat PC-12 cells assessed as increase in alpha-tubulin acetylation incubated for 24 hrs by Western blot analysis; assay type: cell-based; settings: dose 0.1-1 µM
Homo sapiens = organism: Homo sapiens; assay: Selectivity index, ratio of IC50 for inhibition of human HDAC1 to IC50 for inhibition of human HDAC6
PC-12 [6] = assay: Neuroprotective activity against H2O2-induced oxidative stress in rat PC-12 cells assessed as increase in cell viability at 5 uM incubated for 24 hrs; assay type: functional, cell-based
[7] = target: T2, Protein deacetylase HDAC6 (Homo sapiens, UniProt Q9UBN7); assay: Inhibition of human HDAC6 using RHKKAc as substrate by fluorescence based assay
T2 sequence (Q9UBN7 whole entry): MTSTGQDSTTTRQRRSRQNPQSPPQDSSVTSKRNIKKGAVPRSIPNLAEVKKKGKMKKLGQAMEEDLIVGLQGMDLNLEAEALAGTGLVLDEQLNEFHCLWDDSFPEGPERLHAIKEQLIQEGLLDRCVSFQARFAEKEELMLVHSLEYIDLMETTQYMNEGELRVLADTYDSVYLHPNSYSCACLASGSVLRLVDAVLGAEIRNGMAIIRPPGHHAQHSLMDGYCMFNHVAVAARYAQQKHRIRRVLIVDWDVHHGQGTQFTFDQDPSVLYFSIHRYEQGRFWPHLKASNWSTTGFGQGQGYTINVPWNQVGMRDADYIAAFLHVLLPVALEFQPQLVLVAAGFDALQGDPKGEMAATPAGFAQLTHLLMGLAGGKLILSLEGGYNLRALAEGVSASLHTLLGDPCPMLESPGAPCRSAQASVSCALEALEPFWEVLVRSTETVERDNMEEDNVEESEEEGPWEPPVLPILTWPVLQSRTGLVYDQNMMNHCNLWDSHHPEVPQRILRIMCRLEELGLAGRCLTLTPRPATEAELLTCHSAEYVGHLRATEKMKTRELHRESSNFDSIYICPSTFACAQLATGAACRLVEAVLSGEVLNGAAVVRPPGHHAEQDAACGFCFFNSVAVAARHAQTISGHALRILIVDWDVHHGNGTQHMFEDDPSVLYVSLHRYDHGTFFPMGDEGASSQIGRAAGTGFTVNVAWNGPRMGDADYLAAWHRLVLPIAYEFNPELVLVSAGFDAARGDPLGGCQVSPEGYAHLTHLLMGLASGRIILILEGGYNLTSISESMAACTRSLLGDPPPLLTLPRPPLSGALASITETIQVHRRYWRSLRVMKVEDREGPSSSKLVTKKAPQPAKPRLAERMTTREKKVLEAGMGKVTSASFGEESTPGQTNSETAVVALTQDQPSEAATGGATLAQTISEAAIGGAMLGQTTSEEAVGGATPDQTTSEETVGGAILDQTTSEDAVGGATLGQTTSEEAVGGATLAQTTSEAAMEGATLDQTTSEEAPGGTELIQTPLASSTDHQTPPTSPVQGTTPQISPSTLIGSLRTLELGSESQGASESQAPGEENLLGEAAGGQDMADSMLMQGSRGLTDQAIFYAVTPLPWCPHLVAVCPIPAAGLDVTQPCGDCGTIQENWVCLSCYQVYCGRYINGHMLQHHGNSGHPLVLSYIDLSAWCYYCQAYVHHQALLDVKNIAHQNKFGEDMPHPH

[8] = Neurotoxicity in rat PC-12 cells at 1 to 10 uM; assay type: toxicity, cell-based; settings: pc-12, 10 µM, dose 1-10 µM

Sequence of Histone deacetylase 1 (Q13547 whole entry): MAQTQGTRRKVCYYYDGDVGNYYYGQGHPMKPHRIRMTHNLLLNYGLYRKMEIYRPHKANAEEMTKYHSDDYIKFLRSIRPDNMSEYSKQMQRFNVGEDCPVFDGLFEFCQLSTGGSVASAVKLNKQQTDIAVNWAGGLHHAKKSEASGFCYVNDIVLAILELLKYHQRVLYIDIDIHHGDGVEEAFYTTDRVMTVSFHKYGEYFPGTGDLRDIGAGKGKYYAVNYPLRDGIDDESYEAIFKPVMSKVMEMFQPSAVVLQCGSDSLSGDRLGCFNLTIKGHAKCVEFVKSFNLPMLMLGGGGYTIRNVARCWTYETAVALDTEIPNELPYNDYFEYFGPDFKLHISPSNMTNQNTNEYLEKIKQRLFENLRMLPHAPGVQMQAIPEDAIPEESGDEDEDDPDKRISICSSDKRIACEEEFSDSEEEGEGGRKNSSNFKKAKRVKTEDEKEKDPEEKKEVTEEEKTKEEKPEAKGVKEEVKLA
Sequence of Histone deacetylase 2 (Q92769 whole entry): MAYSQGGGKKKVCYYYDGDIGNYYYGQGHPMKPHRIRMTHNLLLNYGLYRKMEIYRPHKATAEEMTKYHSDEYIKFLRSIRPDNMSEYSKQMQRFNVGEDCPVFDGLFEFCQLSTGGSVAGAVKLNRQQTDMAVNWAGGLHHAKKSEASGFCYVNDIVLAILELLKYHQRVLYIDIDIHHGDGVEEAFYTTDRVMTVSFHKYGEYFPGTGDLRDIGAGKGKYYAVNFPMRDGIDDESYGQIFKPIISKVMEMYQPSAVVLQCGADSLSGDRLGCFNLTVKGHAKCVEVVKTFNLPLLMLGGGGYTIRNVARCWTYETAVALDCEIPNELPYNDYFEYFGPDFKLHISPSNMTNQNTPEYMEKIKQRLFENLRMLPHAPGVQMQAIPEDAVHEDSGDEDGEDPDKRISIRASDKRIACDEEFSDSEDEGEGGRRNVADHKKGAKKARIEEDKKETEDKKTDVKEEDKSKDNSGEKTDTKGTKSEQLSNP
Sequence of Histone deacetylase 3/Nuclear receptor corepressor 2 (HDAC3/NCoR2) (O15379 whole entry): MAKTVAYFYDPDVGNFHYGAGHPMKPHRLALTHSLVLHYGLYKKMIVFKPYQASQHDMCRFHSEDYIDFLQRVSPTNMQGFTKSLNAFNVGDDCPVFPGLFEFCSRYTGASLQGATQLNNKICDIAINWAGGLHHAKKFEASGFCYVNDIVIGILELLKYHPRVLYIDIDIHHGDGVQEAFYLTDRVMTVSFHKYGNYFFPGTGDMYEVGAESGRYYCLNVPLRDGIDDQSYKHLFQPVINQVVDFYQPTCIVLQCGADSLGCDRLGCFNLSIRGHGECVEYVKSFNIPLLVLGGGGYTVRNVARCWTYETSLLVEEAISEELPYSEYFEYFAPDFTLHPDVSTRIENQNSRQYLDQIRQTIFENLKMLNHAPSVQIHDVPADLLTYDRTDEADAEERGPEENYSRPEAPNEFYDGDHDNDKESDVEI
Sequence of Histone deacetylase 3/Nuclear receptor corepressor 2 (HDAC3/NCoR2) (Q9Y618 whole entry, further chain): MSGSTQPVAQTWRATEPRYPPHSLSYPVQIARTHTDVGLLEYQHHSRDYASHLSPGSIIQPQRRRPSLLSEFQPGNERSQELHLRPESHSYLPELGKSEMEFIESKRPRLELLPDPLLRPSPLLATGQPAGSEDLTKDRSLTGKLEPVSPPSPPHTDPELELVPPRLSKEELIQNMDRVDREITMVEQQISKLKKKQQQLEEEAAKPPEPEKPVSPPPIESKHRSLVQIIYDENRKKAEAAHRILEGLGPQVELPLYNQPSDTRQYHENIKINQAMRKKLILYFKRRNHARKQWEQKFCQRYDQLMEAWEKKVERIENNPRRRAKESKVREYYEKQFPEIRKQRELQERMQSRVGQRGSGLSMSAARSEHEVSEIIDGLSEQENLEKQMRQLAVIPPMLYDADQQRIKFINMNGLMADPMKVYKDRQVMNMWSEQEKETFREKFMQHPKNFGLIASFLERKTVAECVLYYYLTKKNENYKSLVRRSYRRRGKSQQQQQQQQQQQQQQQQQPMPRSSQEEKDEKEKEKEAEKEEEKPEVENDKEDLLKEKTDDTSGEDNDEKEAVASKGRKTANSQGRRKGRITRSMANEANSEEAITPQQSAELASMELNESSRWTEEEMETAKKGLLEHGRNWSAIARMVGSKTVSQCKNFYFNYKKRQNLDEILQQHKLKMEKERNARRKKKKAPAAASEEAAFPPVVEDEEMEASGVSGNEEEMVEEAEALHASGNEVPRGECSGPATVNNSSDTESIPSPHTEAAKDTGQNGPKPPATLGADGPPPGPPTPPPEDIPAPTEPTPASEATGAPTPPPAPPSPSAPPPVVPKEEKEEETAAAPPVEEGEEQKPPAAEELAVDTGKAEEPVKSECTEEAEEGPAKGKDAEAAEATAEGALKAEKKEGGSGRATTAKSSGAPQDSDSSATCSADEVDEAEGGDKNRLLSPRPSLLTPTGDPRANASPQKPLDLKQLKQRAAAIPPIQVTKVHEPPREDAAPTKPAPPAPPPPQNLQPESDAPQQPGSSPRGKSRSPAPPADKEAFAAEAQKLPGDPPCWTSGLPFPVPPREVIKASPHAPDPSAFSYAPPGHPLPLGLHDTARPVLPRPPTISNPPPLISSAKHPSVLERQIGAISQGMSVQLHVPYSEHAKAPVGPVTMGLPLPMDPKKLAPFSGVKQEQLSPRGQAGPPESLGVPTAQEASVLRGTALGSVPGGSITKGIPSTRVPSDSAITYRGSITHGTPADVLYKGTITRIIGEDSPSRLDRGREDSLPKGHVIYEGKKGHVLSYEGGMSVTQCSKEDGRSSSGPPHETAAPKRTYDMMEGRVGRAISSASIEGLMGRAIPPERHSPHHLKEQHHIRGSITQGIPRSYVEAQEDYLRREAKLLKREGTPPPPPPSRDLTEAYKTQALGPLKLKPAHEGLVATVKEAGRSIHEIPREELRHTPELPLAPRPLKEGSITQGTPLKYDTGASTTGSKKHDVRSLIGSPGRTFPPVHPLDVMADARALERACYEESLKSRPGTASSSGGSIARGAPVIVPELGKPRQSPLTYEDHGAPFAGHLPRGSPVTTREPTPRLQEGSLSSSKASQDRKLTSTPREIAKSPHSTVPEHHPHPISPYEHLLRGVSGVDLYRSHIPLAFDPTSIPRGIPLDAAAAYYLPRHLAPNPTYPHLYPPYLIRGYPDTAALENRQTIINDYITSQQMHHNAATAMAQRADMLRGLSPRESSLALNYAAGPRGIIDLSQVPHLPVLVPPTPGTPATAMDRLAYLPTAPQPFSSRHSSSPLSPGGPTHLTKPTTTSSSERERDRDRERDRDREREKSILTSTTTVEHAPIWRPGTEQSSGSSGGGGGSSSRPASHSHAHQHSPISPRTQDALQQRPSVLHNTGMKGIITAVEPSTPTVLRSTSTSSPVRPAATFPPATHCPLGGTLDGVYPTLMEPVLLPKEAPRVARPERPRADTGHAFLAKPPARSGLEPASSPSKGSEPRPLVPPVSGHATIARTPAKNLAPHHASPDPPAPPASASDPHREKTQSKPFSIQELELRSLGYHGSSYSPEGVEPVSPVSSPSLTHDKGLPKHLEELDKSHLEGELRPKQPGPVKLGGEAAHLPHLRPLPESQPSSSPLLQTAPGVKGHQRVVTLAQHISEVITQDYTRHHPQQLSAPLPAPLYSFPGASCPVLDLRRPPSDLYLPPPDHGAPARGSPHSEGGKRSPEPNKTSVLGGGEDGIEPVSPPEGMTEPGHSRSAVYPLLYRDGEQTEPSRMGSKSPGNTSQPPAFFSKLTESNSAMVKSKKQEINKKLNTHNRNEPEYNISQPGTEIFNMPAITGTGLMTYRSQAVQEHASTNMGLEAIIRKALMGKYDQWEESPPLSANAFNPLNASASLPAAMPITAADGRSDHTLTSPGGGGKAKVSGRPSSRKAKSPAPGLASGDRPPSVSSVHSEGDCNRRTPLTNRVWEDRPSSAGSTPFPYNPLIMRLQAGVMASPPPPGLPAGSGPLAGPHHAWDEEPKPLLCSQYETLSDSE
Sequence of Histone deacetylase 5 (Q9UQL6 whole entry): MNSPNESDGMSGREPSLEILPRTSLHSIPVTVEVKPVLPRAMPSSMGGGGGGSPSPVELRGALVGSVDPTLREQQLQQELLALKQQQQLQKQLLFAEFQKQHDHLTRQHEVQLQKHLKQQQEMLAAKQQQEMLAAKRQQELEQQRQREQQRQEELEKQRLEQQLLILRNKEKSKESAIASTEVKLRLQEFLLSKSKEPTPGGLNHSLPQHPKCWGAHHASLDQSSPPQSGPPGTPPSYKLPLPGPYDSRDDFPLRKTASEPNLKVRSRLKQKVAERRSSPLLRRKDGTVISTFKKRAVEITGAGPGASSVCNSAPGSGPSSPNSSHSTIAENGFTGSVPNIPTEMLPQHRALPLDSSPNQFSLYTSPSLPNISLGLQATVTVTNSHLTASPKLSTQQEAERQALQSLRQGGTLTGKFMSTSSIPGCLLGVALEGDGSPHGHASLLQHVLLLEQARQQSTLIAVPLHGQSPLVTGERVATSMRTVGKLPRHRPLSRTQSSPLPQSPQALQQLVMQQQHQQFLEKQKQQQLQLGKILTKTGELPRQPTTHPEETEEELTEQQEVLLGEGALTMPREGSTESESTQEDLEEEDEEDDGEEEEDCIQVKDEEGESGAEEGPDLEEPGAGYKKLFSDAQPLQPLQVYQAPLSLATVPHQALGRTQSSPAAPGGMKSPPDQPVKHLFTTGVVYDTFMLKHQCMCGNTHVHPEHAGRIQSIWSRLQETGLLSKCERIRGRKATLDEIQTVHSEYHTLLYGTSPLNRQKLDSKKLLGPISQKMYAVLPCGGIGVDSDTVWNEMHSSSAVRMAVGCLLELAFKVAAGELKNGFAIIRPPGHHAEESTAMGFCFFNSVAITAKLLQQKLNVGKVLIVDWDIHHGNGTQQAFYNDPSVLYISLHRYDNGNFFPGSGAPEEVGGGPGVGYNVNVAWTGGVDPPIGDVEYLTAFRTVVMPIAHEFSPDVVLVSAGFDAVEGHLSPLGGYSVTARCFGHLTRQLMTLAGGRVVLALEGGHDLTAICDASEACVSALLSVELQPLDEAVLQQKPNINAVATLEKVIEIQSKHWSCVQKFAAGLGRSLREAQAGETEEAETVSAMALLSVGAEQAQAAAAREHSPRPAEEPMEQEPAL

SMILES | viability at 5 µM (PC-12 [1]) | Activity (PC-12 [2]) | Activity (PC-12 [3]) | IC50 (Histone deacetylase 1) | IC50 (Histone deacetylase 2) | IC50 [4] | IC50 (Histone deacetylase 8) | IC50 (Histone deacetylase 5) | inhibition (PC-12 [5]) | Ratio IC50 (Homo sapiens) | Activity (PC-12 [6]) | IC50 [7] | Activity [8]
CN1CCc2c(c3ccccc3n2Cc2ccc(C(=O)NO)cc2)C1 [TUBASTATIN A] | 77.6% | 26.7% |  |  |  |  |  |  |  |  |  |  | 
O=C(NO)c1ccc(CNC(=O)[C@@H]2Cc3c([nH]c4ccccc34)[C@@H](c3ccc(Cl)cc3)N2CC2CC2)cc1 | 99.6% | 47.1% | Dose-Dependent Effect | 1280 nM | 1440 nM | 1660 nM | > 10000 nM | > 10000 nM | Dose-Dependent Effect |  |  |  | 
O=C(NO)c1ccc(CNC(=O)[C@@H]2Cc3c([nH]c4ccccc34)[C@@H](C3CCCC3)N2)cc1 |  | 23.3% |  | 204 nM |  |  |  |  |  | 45 | inactive | 4.54 nM | 
O=C(NO)c1ccc(CNC(=O)[C@@H]2Cc3c([nH]c4ccccc34)[C@@H](C3CC3)N2)cc1 |  | 23.3% |  | 118 nM |  |  |  |  |  | 36 | inactive | 3.25 nM | 
O=C(NO)c1ccc(CNC(=O)[C@@H]2Cc3c([nH]c4ccccc34)[C@@H](C3CC3)N2Cc2ccccc2)cc1 | > 85% | 23.3% | Dose-Dependent Effect | 1700 nM |  |  |  |  |  | 134 |  | 12.7 nM | 
O=C(NO)c1ccc(CNC(=O)[C@@H]2Cc3c([nH]c4ccccc34)[C@@H](c3ccc4c(c3)OCO4)N2)cc1 |  | 46.4% |  | 216 nM |  |  |  |  |  | 108 | inactive | 2 nM | Toxic
COc1ccc([C@H]2N[C@H](C(=O)NCc3ccc(C(=O)NO)cc3)Cc3c2[nH]c2ccccc32)cc1OC |  | 23.3% |  | 390 nM |  |  |  |  |  |  | inactive |  | 
O=C(NO)c1ccc(CNC(=O)[C@@H]2Cc3c([nH]c4ccccc34)[C@@H](c3ccc(Cl)cc3)N2)cc1 |  | 23.3% |  | 770 nM |  |  |  |  |  | 137 | inactive | 5.61 nM | 
COc1ccc(CN2[C@H](C)c3[nH]c4ccccc4c3C[C@H]2C(=O)NCc2ccc(C(=O)NO)cc2)cc1 |  |  |  | > 10000 nM |  |  |  |  |  |  |  | 34.2 nM | 
O=C(NO)c1ccc(CNC(=O)[C@@H]2Cc3c([nH]c4ccccc34)[C@@H](C3CC3)N2Cc2ccc(Cl)cc2)cc1 | 92.5% | 23.3% | Dose-Dependent Effect | 1740 nM |  |  |  |  |  | 155 |  | 11.2 nM | 
O=C(NO)c1ccc(CNC(=O)[C@@H]2Cc3c([nH]c4ccccc34)[C@@H](c3ccccc3)N2)cc1 |  | 23.3% |  | 742 nM |  |  |  |  |  | 140 | inactive | 5.3 nM | 
COc1ccc(CN2[C@H](C(=O)NCc3ccc(C(=O)NO)cc3)Cc3c([nH]c4ccccc34)[C@H]2C2CC2)cc1 | > 85% | 23.3% | Dose-Dependent Effect |  |  |  |  |  |  |  |  |  | 
